Experimental data taken from US11638424B2, “Mosquito attractant formulations and uses thereof” (priority 2017, dated 2023).

Legend:
RBCs = test: CO2 production of RBCs (GC-MS and quantitative respirometry, IRGA); format: cell-based, Human; settings: 10 μM HMBPP, FIG. 2B
Procedure: RBCs (1 ml) were transferred to 4 ml glass vials closed with auto-sampler screw caps, and equilibrated in a thermostat at 38° C. for 15 min. Then, 2.5 μl of HMBPP or Nanopure water were added to the RBCs samples (final concentration: 10 μM HMBPP per sample). Volatiles were collected from the headspace using solid phase micro-extraction (SPME; Supelco, Bellmonte, Pa., USA) (M. J. Yang, el al., J. Chem. Educ., 74, 1130-1132 (1997) and A. K. Borg-Karlson and R. Mozuraitis, Naturforsch., C. 51, 599-602 (1996)). […] Electron ionisation mass spectra were determined at 70 eV with the ion source kept at 230° C. and mass spectra were obtained at mass to charge ratio (m/z) 29-400. […] A similar protocol was used for the quantification of CO2, with the mass spectral data and GC retention times being compared with emission from frozen CO2. The relative amounts of CO2 in arbitrary units were determined from the areas of the respective chromatogram peaks using single ion display mode at m/z 44±0.5 Da. The amounts of identified compounds were quantified by the use of extracted ion chromatograms, since they are very minute. […] The estimations were based on the very same quantifications given in ‘arbitrary area units’. […]

human Vγ9Vδ2 T-cells = settings: cited from earlier work
A. gambiae sensu lato = test: Dual choice attraction bioassay (Y-tube olfactometer); format: in vivo; settings: FIG. 1A
Procedure: Mosquitoes used in this study were from the laboratory colony of A. gambiae sensu lato (Keele line, University of Glasgow), which was produced by balanced interbreeding of four A. gambiae s.s. strains (H. Hurd, et al. Evolution, 59, 2560-2572 (2005)). Larvae were reared under standard insectary conditions (27±1° C., 70% humidity, 12 h light: 12 h dark cycle) and fed on TetraMin fish flakes (Tetra ltd., Germany). Pupae were transferred into holding cages for emergence. Emerged adults were fed ad libitum on 5% glucose solution, supplemented with 0.05% (w/v) 4-aminobenzoic acid (PABA, Sigma-Aldrich), through soaked filters on top of the 2 ml tubes and with soaked filter pads inside cages. Red blood cells (RBCs) were washed with Roswell Park Memorial Institute (RPMI) medium and stored in RPMI at 50% haematocrit at 4° C. until use. To measure the effect of HMBPP on mosquito fitness, RBCs stored in RPMI were centrifuged at 2500×g for 5 min followed by replacement of the medium with AB serum for a final haematocrit of 40%. HMBPP (stock concentration at 4 mM in Nanopure water, stored at −80° C.) was diluted to 10 μM in 1 ml RBC suspension, and the corresponding volume of Nanopure water was added to the control RBCs. All experiments were, unless otherwise stated, conducted on 5-7 days post-emergence female mosquitoes maintained in separated cages (approximately 210 individuals per cohort) and fed RBCs either with or without HMBPP for 30 min. All experiments were performed in triplicates.
Initial experiments were performed using a Y-tube olfactometer (length of the central cylinder and two arms: 25/15/15 cm respectively, inner diameter: 5 cm; see FIG. 1a). For each experiment, 180 female mosquitoes were individually placed in a release chamber and flown one by one. Females flew towards the upwind end (airflow 3 L min^−1) and entered one of two trapping chambers through which odour released from nearby membrane feeders passed (5 cm distance to each trapping chamber). Three experiments were conducted. In the first experiment, the membrane feeders were loaded with RBCs with or without HMBPP, while in the second they were loaded with serum with or without HMBPP. The third experiment was performed with a 5% glucose with 0.05% PABA solution with or without HMBPP. To control for possible spatial effects, the location of treatment at each olfactometer arm was switched every 30 minutes (˜15 mosquitoes flied one by one in each 30 minutes). Each replacement (feeder rotation with fresh RBCs) was counted as an experimental replicate (experimental block). Mosquitoes reaching any of the trapping chambers were considered to have made a choice. Each experiment was repeated six times with in total 180 mosquitoes per treatment.

## C/C(=C\COP(=O)(O)OP(=O)(O)O)CO [HMBPP, (E)-4-hydroxy-3-methyl-but-2-enyl pyrophosphate]
RBCs
  increase of the amount of CO2 released into the gas headspace above hRBC suspensions compared to RBCs alone: 16%
Human Vγ9Vδ2 T-cells
  activation of human Vγ9Vδ2 T-cells: highly potent activator
A. gambiae sensu lato; RBCs with 10 μM HMBPP vs RBCs
  host-seeking mosquitoes that chose HMBPP-supplemented RBCs (hRBCs) over RBCs: 95%
A. gambiae sensu lato; glucose solution (5%) containing PABA 0.05%, with vs without HMBPP
  attraction to HMBPP-supplemented glucose solution: did not, however, increase attraction
A. gambiae sensu lato; serum with vs without HMBPP
  attraction to HMBPP-supplemented serum: did not, however, increase attraction
